Results on 8 molecules are retold here after patent US20230174488A1 (priority 2020, published 2023).

The nature of series [1]: in vitro. Conditions: African green monkey.
For series [2] the following is noted: plasma.
A further series deals with CYP 2C9 (Homo sapiens, UniProt P11712). The series can be described thus: biochemical.
The nature of the next series: PAMPA permeability assay. In kind it is in vitro ADME.
Another series addresses T1, CYP 1A2 (Homo sapiens, UniProt P05177).
T1 sequence (P05177 1-516): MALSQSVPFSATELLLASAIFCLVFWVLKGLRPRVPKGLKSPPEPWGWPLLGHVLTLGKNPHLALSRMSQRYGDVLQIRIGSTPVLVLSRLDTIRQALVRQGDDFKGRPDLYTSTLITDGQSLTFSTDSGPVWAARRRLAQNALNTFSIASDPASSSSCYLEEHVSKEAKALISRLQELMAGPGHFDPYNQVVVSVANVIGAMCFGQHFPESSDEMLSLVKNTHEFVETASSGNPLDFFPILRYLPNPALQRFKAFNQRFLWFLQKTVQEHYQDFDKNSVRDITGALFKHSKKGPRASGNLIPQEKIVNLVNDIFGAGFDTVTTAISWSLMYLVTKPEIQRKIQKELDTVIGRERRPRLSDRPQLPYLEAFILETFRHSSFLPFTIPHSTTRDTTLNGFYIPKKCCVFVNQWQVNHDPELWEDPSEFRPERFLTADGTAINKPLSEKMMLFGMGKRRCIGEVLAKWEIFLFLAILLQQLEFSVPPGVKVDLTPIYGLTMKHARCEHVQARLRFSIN
Briefly: CYP inhibition assay, 1A2.

A further series can be described thus: Plasma stability, human. In kind it is in vitro ADME. Conditions: pH 7.4.
Another series can be described thus: Plasma stability, mice. In kind it is in vitro ADME. Conditions: mouse.
The conditions of series [3]: mouse, plasma.
A short description of a further series: physchem. Conditions: water, kinetic from dmso stock.
In the next series the test system is SARS-CoV-2. The series can be described thus: In vitro antiviral cell-based assay (live SARS-CoV-2 IFA) in Vero cells. Conditions: Severe acute respiratory syndrome coronavirus 2, MOI ~0.0125, 24 hpi.
The next series deals with CYP 2D6 (Homo sapiens, UniProt P10635). The series can be described thus: CYP inhibition assay, 2D6.
In series [4] the target is T2, SARS-CoV-2 M^PRO (Severe acute respiratory syndrome coronavirus 2, UniProt P0DTD1). Briefly: biochemical. In kind it is biochemical. The following applies: In vitro potency data; 30 min pre-incubation, 25 nM M^pro, 25 µM substrate; read-out: IC50.
Another series has as its target CYP 2C19 (Homo sapiens, UniProt P33261). The series can be described thus: CYP inhibition assay, 2C19.
The next series addresses CYP 3A4 (Homo sapiens, UniProt P08684). The series can be described thus: CYP inhibition assay, 3A4.
Series [5] concerns the target T2, SARS-CoV-2 M^PRO. The series can be described thus: Crystal structure of ligand bound to SARS-CoV-2 M^pro. The following applies: X-ray, complex with SARS-CoV-2 M^pro.
The format of series [6] is in vitro ADME. Conditions: human, microsomes.
Experimental: (§1) Cold ACN, including 100 ng/ml tolbutamide and 100 ng/ml labetalol as internal standard (IS), was used for the stop solution. Compound or control working solution (10 µl per well) was added to all plates (T0, T5, T10, T20, T30, T60, and NCF60), except the matrix blank. Dispensed microsome solution (80 µl per well) was added to every plate by Apricot and the mixture of microsome solution and compound was incubated at 37° C. for approximately 10 min. After prewarming, a dispensed NADPH regenerating system (10 µl per well) was added to every plate by Apricot to start a reaction. The solution was then incubated at 37° C. Stop solution (300 µl per well, 4° C.) was then added to terminate the reaction. The sampling plates were shaken for approximately 10 minutes. The samples were centrifuged at 4,000 rpm. for 20 min at 4° C. While centrifuging, new 8×96-well plates were loaded with 300 µl HPLC water, and then 100 µl supernatant was transferred and mixed for liquid chromatography-tandem mass spectrometry (LC/MS/MS).
Series [7] is described as follows: Microsomal stability, mouse liver microsomes. In kind it is in vitro ADME. Conditions: CD-1, mouse.
Experimental: as §1
Series [8] is described as follows: in vitro. The following applies: mouse.
A short description of the next series: Caco-2 permeability. In kind it is in vitro ADME. Conditions: human, Caco-2, pH 7.4.
The nature of series [9]: in vitro. The following applies: human.
Series [10] is described as follows: Cytotoxicity (CC50) in Vero cells. Conditions: African green monkey.

Converted amounts (≈) assume the structure as drawn. Where two headings read alike, the source gives them in different places.

Sequence of CYP 2D6 (P10635 whole entry): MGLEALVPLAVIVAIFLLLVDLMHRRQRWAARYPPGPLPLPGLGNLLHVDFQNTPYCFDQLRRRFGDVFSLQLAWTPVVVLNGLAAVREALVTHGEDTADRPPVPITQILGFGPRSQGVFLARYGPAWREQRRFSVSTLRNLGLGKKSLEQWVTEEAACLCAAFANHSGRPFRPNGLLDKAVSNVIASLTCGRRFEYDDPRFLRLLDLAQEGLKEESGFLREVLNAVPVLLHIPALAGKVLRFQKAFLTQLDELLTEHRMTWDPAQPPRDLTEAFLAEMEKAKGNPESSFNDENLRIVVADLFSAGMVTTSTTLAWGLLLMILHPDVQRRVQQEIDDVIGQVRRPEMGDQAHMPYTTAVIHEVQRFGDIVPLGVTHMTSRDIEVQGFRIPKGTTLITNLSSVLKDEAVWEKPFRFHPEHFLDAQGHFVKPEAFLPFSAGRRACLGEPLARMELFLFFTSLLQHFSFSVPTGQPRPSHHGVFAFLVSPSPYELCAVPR
Sequence of CYP 2C9 (P11712 whole entry): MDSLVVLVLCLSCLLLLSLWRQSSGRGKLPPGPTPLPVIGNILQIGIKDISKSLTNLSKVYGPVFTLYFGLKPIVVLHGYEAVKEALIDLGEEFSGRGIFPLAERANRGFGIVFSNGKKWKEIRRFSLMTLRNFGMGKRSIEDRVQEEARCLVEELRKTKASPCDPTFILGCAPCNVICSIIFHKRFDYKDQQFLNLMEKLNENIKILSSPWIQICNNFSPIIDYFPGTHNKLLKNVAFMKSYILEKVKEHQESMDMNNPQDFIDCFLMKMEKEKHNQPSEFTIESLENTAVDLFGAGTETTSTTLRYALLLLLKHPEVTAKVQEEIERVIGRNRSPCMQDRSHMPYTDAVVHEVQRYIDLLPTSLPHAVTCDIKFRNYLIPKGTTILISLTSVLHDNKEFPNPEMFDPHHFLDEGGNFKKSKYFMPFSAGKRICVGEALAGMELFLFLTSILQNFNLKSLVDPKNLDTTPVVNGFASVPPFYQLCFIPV
Sequence of CYP 3A4 (P08684 whole entry): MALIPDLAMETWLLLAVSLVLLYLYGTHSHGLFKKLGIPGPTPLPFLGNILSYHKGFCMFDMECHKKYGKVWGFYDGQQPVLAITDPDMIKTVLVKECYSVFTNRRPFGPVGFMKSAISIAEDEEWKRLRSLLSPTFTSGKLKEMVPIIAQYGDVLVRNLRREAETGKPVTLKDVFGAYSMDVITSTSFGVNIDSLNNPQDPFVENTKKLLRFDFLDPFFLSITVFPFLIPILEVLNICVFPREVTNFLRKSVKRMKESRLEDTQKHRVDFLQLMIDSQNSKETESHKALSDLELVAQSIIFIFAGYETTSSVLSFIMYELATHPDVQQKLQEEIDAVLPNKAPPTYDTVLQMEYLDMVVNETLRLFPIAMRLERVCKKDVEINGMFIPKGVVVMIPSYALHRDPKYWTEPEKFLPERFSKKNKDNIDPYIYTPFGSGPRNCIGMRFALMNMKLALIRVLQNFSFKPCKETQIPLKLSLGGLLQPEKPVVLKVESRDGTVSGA
Sequence of CYP 2C19 (P33261 whole entry): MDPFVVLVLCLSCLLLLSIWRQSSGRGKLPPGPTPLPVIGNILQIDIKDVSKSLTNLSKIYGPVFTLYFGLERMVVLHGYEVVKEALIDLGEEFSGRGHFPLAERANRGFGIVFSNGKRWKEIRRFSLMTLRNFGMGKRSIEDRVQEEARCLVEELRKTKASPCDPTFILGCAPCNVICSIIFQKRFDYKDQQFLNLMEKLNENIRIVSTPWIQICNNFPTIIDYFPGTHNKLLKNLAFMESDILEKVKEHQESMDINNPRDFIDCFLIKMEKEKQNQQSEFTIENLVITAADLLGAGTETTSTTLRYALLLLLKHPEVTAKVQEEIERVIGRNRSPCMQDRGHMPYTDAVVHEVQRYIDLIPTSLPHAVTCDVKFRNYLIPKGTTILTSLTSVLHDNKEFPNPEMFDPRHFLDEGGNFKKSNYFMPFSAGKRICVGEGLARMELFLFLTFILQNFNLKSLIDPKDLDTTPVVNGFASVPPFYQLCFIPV
Experimental for CYP 1A2: (§2) The following reagents/reactants were used in the assay: water was purified by ELGA Lab purification systems, buffer solution: PB (100 mM), MgCl2 (33 mM), organic solvents were AR or HPLC grade, CYP substrates: phenacetin (10 µM, 25 µL, 1A2), diclofenac (5 µM, 25 µL, 2C9), S-mephenytoin (30 µM, 75 µL, 2C19), dextromethorphan (5 µM, 12,5, 2D6), and midazolam (2 µM, 10 µL, 3A4), stock solutions were prepared in MeOH (20, 10, 20, 20, and 10 mM, respectively). Positive controls: α-naphthoflavone, sulfaphenazole, (+)-N-3-benzylnirvanol, quinidine, and ketoconazole, final concentration was 3 µM in MeOH (90 µL), stock solutions were prepared in DMSO (3 mM for all the inhibitors). Test compounds were evaluated using five conc. points at the range of 15-5,000 µM. […] Main procedure: working solution (100×) of the test compound and standard inhibitors were prepared, microsomes were pulled out of the -80° C. freezer to thaw on ice, labeled the date and put it back to the freezer immediately after use. Substrates (20 µL) and PB (20 µL) were added to corresponding wells and Blank wells, respectively. […] HLM working solution (158 µL) was added to all wells of the incubation plate. Plate was pre-warmed for about 10 min at 37° C. in a water bath, then NADPH (20 µL) was added to all incubation wells. CYPs were mixed and incubated for 10 min at 37° C. in a water bath. The reaction was terminated at the time point by adding a 400 µL cold stop solution (200 ng/mL tolbutamide and labetalol in ACN). Samples were centrifuged at 4000 rpm for 20 minutes to precipitate protein. Supernatant (200 µL) was transferred to 100 µL HPLC water and shaken for 10 min, then samples were subjected for LC/MS/MS analysis. XL fit was used to plot the percent of vehicle control vs the test compound concentrations, and for non-linear regression analysis of the data. IC50 values were determined using 3- or 4-parameter logistic equations.
Experimental for CYP 2C19: as §2
Experimental for CYP 2C9: as §2
Experimental for CYP 2D6: as §2
Experimental for CYP 3A4: as §2
Experimental for Caco-2 permeability: Medium was refreshed every 4 \~5 days until the 21st to 28th day for confluent cell monolayer formation. The transport buffer was HBSS with 10 mM HEPES at pH=7.40±0.05. […] Final DMSO concentration was adjusted to less than 1%. The plate was incubated for 2 h in the CO2 incubator at 37±1° C., with 5% CO2 at saturated humidity without shaking. All the samples were then mixed with acetonitrile containing internal standard and centrifuged at 3200 xg for 10 min. For nadolol and metoprolol, 100 µL supernatant solution was diluted with 300 µL distilled water for LC-MS/MS analysis. For digoxin and test compounds, 100 µL supernatant solution was diluted with 100 µL distilled water for LC-MS/MS analysis. Concentrations of test and control compounds in starting solution, donor solution, and receiver solution were quantified by LC-MS/MS methodologies, using peak area ratio of analyte/internal standard. After transport assay, lucifer yellow rejection assay was applied to determine the Caco-2 cell monolayer integrity. The apparent permeability coefficient Papp (cm/s) was calculated using the equation:
where d/Cr/6t is the cumulative concentration of compound in the receiver chamber as a function of time (µM/s); Vr is the solution volume in the receiver chamber (0.075 mL on the apical side, 0.25 mL on the basolateral side); A is the surface area for the transport, i.e. 0.0804 cm^2 for the area of the monolayer; C0 is the initial concentration in the donor chamber (µM).
The efflux ratio was calculated using the equation:
where Vd is the volume in the donor chambers (0.075 mL on the apical side, 0.25 mL on the basolateral side); Cd and Cr are the final concentrations of the transport compound in donor and receiver chambers, respectively.
Experimental for PAMPA permeability assay: 2.6 g KH2PO4 and 18.5 g K3PHO4×3H2O were dissolved in 1000 mL of ultra-pure water, mixed thoroughly. The pH was adjusted to 7.40 ± 0.05, using either 1 M sodium hydroxide or 1 M hydrochloric acid. 0.2 mM working solution was prepared by diluting 10 mM stock solution with DMSO. 10 µM donor solution (5% DMSO) was prepared by diluting 20 µL of working solution with 380 µL PBS. 150 µL of 10 µM donor solutions to each well of the donor plate, whose PVDF membrane was precoated with 5 µL of 1% lecithin/dodecane mixture. Duplicates were prepared. 300 µL of PBS was added to each well of the PTFE acceptor plate. The donor plate and acceptor plate were combined together and incubated for 4 h at room temperature with shaking at 300 rpm. […] Preparation of acceptor sample: the plate was removed from the incubator. 270 µL solution was transferred from each acceptor well and mixed with 130 µL ACN (containing internal standard) as acceptor sample. […] Acceptor samples and donor samples were all analyzed by LC-MS/MS.
Experimental for Plasma stability, human: (§3) Propantheline bromide was used as a reference compound in this assay. The pooled frozen plasma was thawed in a water bath at 37° C. prior to experiment. Plasma was centrifuged at 4000 rpm for 5 min and the clots were removed if any. The pH will be adjusted to 7.4 ± 0.1 if required.
(§4) Preparation of compounds: 1 mM intermediate solution was prepared by diluting 10 µL of the stock solution with 90 µL DMSO; 1 mM intermediate of positive control Propantheline was prepared by diluting 10 µL of the stock solution with 90 µL ultrapure water. For test compounds, 100 µM dosing solution was prepared by diluting 10 µL of the intermediate solution (1 mM) with 90 µL DMSO. […] 98 µL of blank plasma was spiked with 2 µL of dosing solution (100 µM) to achieve 2 µM of the final concentration in duplicate and samples were Incubated at 37° C. in a water bath. […] Centrifuged sample plates at 4,000 rpm for 10 min. An aliquot of supernatant (50 µL) was transferred from each well and mixed with 100 µL ultra-pure water. The samples were shaken at 800 rpm for about 10 min before submitting to LC-MS/MS analysis. The % remaining of test compound after incubation in plasma was calculated using following equation:
(§5) where PAR is the peak area ratio of analyte versus internal standard (IS).
Experimental for Plasma stability, mice: as §3, §4, §5

`O=C(NC1CCC(F)(F)CC1)[C@@H](c1cncnc1)N(C(=O)[C@@H](F)Cl)c1ccc(-c2cncs2)cc1` (single isomer, unassigned) [INSCoV-614(1B), 2-Chloro-N-(2-((4,4-difluorocyclohexyl)amino)-2-oxo-1-(pyrimidin-5-yl)ethyl)-2-fluoro-N-(4-(thiazol-5-yl)phenyl)acetamide] displayed a CC50 at 24 h in “in vitro [1]” of more than 25 µM. In addition, in series [2], the “PPB, human, % Bound” value was determined as 70.59%. The IC50 worked out at 15.6 µM against CYP 2C9; 24.3 µM against CYP 1A2; 6.5 µM on CYP 2D6; 0.06 µM on SARS-CoV-2 M^PRO [4]; 9.5 µM at CYP 2C19; 1.45 µM on CYP 3A4. Moreover, the “PAMPA, Mean Pe” value in “PAMPA permeability assay” (4 h, 10 µM, pH 7.4) turned out to be 0.188 ×10⁻⁶ cm/s. In “PAMPA permeability assay” (pH 7.4), the Papp at 4 h, 10 µM came to 0.188 ×10⁻⁶ cm/s. The “Plasma stability, T½, min, human” value in “Plasma stability, human” (2 µM) is reported as more than 289.1 min. Also, the half-life at 2 µM in the series “Plasma stability, human” is more than 289 min; in the series “Plasma stability, mice” (pH 7.4), more than 289 min. In the series “Plasma stability, mice”, the “Stability in plasma (in words)” value is listed as “significantly improved stability in plasma”. For the same molecule, the “Plasma stability, T½, min, mice” value in the series “Plasma stability, mice” (2 µM, pH 7.4) is recorded as more than 289.1 min. Besides, the “PPB, mice, % Bound” value in series [3] came out at 83.78%. Besides, the solubility (kinetic) in the series “physchem” was found to be 164 µM (≈ 85.9 µg/mL). This molecule yielded an EC50 in the series with SARS-CoV-2 of 2.23 µM.

On to `N#Cc1cc(OC(F)(F)F)ccc1N(C(=O)CCl)C(C(=O)NC1CCCCC1)c1cccnc1` (stereo not shown) [INSCoV-517], for which the CC50 at 24 h in “in vitro [1]” is more than 50 µM. This molecule had an EC50 in the series with SARS-CoV-2 of 3.22 µM. In addition, the IC50 at SARS-CoV-2 M^PRO [4] worked out at 0.24 µM.

As to `O=C(NC1CCC(F)(F)CC1)[C@@H](c1cnccn1)N(C(=O)CCl)c1ccc(-c2ccns2)cc1` [INSCoV-601I(l)], the “Binding mode in crystal structure” value at SARS-CoV-2 M^PRO [5] was “covalently bound to Cys145 residue of SARS-CoV-2 M^Pro”. Besides, in the series with SARS-CoV-2, the EC50 amounted to 14.1 µM. The IC50 at SARS-CoV-2 M^PRO [4] stood at 0.05 µM.

Regarding `CC(C(=O)NC1CCC(F)(F)CC1)(c1cncnc1)N(C(=O)CCl)c1ccc(-c2ccno2)cc1` (single isomer, unassigned) [INSCoV-601P(1A), 2-(2-Chloro-N-(4-(isoxazol-5-yl)phenyl)acetamido)-N-(4,4-difluorocyclohexyl)-2-(pyrimidin-5-yl)propanamide], the microsomal CLint came out at 66 µL/min/mg in series [6] and 102 µL/min/mg in series [7]. Besides, the IC50 on CYP 2C9 is more than 50 µM; at CYP 1A2, more than 50 µM; on CYP 2D6 it was 6.12 µM; on SARS-CoV-2 M^PRO [4], 0.14 µM; against CYP 2C19, more than 50 µM; on CYP 3A4 it was 3.62 µM. Besides, the Papp at 4 h, 10 µM in the series “PAMPA permeability assay” (pH 7.4) amounted to 0.626 ×10⁻⁶ cm/s. The half-life at 2 µM was found to be 16.3 min in the series “Plasma stability, human” and 13.1 min in “Plasma stability, mice” (pH 7.4). The recovery in “in vitro [8]” came out at 2.8%; in “in vitro [9]”, 1.3%. The molecule also displayed a solubility (kinetic) in the series “physchem” of 142 µM (≈ 71.6 µg/mL). This molecule yielded a Papp A→B at 2 h, 2 µM in “Caco-2 permeability” of less than 0.48 ×10⁻⁶ cm/s. In the series “Caco-2 permeability”, the efflux ratio at 2 h, 2 µM was more than 0.489.

The molecule `Cc1cccc(C)c1OCC(=O)N[C@@H](Cc1ccccc1)[C@@H](O)C[C@H](Cc1ccccc1)NC(=O)[C@H](C(C)C)N1CCCNC1=O` [Lopinavir, lopinavir, reference compound] displayed a CC50 at 24 h in [10] of more than 50 µM. The molecule further came in with an EC50 in the series on SARS-CoV-2 of 13.9 µM.

`O=C(NC1CCC(F)(F)CC1)[C@@H](c1cncnc1)N(C(=O)[C@@H](F)Cl)c1ccc(-c2ccno2)cc1` (single isomer, unassigned) [INSCoV-614A(2A), 2-Chloro-N-(2-((4,4-difluorocyclohexyl)amino)-2-oxo-1-(pyrimidin-5-yl)ethyl)-2-fluoro-N-(4-(isoxazol-5-yl)phenyl)acetamide] had an EC50 with SARS-CoV-2 of 4.25 µM. The IC50 at SARS-CoV-2 M^PRO [4] amounted to 0.18 µM.

Molecule `O=C(NC1CCC(F)(F)CC1)C(c1cncnc1)N(C(=O)CCl)c1ccc(-c2ccno2)cc1` (single isomer, unassigned) [INSCoV-600J(1), 2-Chloro-N-(2-((4,4-difluorocyclohexyl)amino)-2-oxo-1-(pyrimidin-5-yl)ethyl)-N-(4-(isoxazol-5-yl)phenyl)acetamide] came in with an EC50 in the series with SARS-CoV-2 of 14.2 µM. The IC50 on SARS-CoV-2 M^PRO [4] amounted to 0.063 µM.

With `CC(C(=O)NC1CCC(F)(F)CC1)(c1cnccn1)N(C(=O)CCl)c1ccc(-c2ccns2)cc1` (stereo not shown) [INSCoV-601N, 2-(2-Chloro-N-(4-(isothiazol-5-yl)phenyl)acetamido)-N-(4,4-difluorocyclohexyl)-2-(pyrazin-2-yl)propanamide], the microsomal CLint in series [6] was found to be 169 µL/min/mg; in series [7], 531 µL/min/mg. For the same molecule, the IC50 on CYP 2C9 worked out at 3.25 µM; on CYP 1A2, 24.9 µM; at CYP 2D6 it was 0.706 µM; on SARS-CoV-2 M^PRO [4], 0.12 µM; at CYP 2C19 it was 5.65 µM; against CYP 3A4, 0.218 µM. For the same molecule, in the series “PAMPA permeability assay” (pH 7.4, pH 7.40, 4 h, read-out: PAMPA, Mean Pe), the Papp at 4 h, 10 µM stood at 15.5 ×10⁻⁶ cm/s. In addition, the half-life at 2 µM in “Plasma stability, human” is 32.6 min; in the series “Plasma stability, mice” (pH 7.4), 21.1 min. In addition, the results for the recovery in the series “in vitro [8]” and in the series “in vitro [9]” were 0.1% and 0.2%, respectively. This molecule also came in with a solubility (kinetic) in “physchem” of less than 1.56 µM. For the same molecule, in the series “Caco-2 permeability” (A to B, 2.00 µM, pH 7.40, read-out: Caco-2, Mean Papp,, A to B), the Papp A→B at 2 h, 2 µM was less than 0.0434 ×10⁻⁶ cm/s.
